The nature of data set [1]: Tissue distribution of unconjugated magnolol. Format: in vivo. Particulars: Sprague-Dawley (SD), rat, 1 h after oral 50 mg kg^−1, male SD rats. The protocol:
(§1) The determination of the bioavailability of magnolol and its tissue distribution to the brain, liver, and kidney was done according to the method of Ding et al. (2018), Higashi (2015), Lin et al. (2011), and Kotani et al. (2005).
After one hour of administration, the animals were euthanized in a carbon dioxide chamber and their organs (brain, liver, and kidney) were collected. The organs were weighed and homogenized in 10 mL of acetonitrile, and centrifuged at 10,000 rpm for 10 min. The supernatant was dried under reduced pressure.
(§2) Samples were reconstituted with acetonitrile prior to HPLC analysis. The samples were injected into the HPLC (n = 3). The quantity of magnolol was computed using a standard calibration curve.

The test system of data set [2] is female Sprague Dawley rats. The data set is described as follows: Acute oral toxicity (OECD 425, limit test). Format: in vivo. The protocol:
Animal toxicity test was done in accordance with the Organization for Economic Cooperation and Development guidelines for testing chemical compounds using the up and down method (OECD procedure 425). Prior to dosing, 2 mL of blood was extracted through tail clipping and was submitted for alanine aminotransferase (ALT) and creatinine level determinations for signs of liver and kidney damages, respectively. […] In cases where the first animal survived, an additional four rats were subjected to the same dose. […] An additional rat was administered with the solvent only to compare the variation in the animal species. Test animals that survived in the 14-day observation were euthanized in a carbon dioxide chamber followed by the harvesting of blood, liver and kidney of all test animals. The blood was once again submitted for ALT and creatinine level determination. The organs were submitted for tissue mounting and histopathological evaluation.

The conditions of data set [3]: low bioavailability of magnolol, stated in the abstract without reference; cited from earlier work.
Data set [4] can be described thus: Oral bioavailability / pharmacokinetic study (serum magnolol by HPLC). Particulars: Sprague-Dawley (SD), rat, 100 mg kg^−1, male SD rats; for AUC(0-t): read-out: AUC0–720 (converted); for half-life: male, 100 mg/kg. Format: in vivo. The method, then:
as §1
For the pharmacokinetic study, male SD rats were randomly divided into 4 groups (n = 3). […] Blood samples (approximately 200 to 250 µL) were collected at predetermined time points (15, 30, 60, 120, 180, 240, 480, and 720 min) and allowed to clot and centrifuged at 4000 rpm at 4 °C for 5 min to obtain the serum. The obtained sera were treated with equal amount of acetonitrile and then centrifuged again to obtain the protein-free sera.
as §2

The structures appear in SMILES notation. Where two headings read alike, the source gives them in different places.

For the compound `C=CCc1ccc(O)c(-c2cc(CC=C)ccc2O)c1` [Magnolol, 4-Allyl-2-(5-allyl-2-hydroxy-phenyl)phenol], the concentration at 1 h in data set [1] (brain, read-out: mean magnolol concentration, Brain) was 374 ± 22 ng/g; in data set [1] (kidney, read-out: mean magnolol concentration, Kidneys), 3740 ± 890 ng/g; in data set [1] (liver, read-out: mean magnolol concentration, Liver), 790 ± 180 ng/g. Also, the “survival after limit dose” value in data set [2] (2000 mg kg^−1 oral, female SD rats, 14 days) is given as “All test animals survived”. Also, the “mean serum ALT level, before vs after administration” value in data set [2] (2000 mg kg^−1 oral, paired t-test) was “no significant difference”. The “median lethal dose (LD50)” value in data set [2] (oral gavage, female SD rats, 14-day observation, assumed from limit test) is reported as “greater than 2000 mg kg^−1”. The bioavailability in data set [3] is 4–5%. Further, the AUC(0-inf) in data set [4] (IP (intraperitoneal route)) is 66900 ng·h/mL; in data set [4] (PO (oral route)), 15100 ng·h/mL. The results for the Cmax in data set [4] (IP (intraperitoneal route)) and in data set [4] (PO (oral route)) were 5100 ± 650 ng/mL and 2570 ± 260 ng/mL, respectively. Also, the Tmax in data set [4] (IP (intraperitoneal route)) is 64.1 min; in data set [4] (PO (oral route)) it was 55.8 min. The results for the AUC(0-t) in data set [4] (IP (intraperitoneal route)) and in data set [4] (PO (oral route)) were 43000 ng·h/mL and 13700 ng·h/mL, respectively. In addition, the half-life in data set [4] (ip, IP (intraperitoneal route), read-out: Abs T1/2 (absorption half-life)) worked out at 17.1 ± 3.63 min; in data set [4] (ip, IP (intraperitoneal route), read-out: T1/2 (elimination half-life)), 461 ± 37.4 min; in data set [4] (po, PO (oral route), read-out: Abs T1/2 (absorption half-life)), 23.3 ± 3.16 min; in data set [4] (po, PO (oral route), read-out: T1/2 (elimination half-life)), 100 ± 20.4 min.

Values taken from publication PMC7285002, “Enhanced Oral Bioavailability of the Pharmacologically Active Lignin Magnolol via Zr-Based Metal Organic Framework Impregnation” (Pharmaceutics, 2020).
